Measurements from patent US20190070396A1 (priority 2017, published 2019).
Where two headings read alike, the source gives them in different places.

Key:
[1] = Beagle, dog, in vivo
[2] = dog, in vivo, 0.8 mg
[3] = in vivo; settings: dog

Row | SMILES | buccal increase over basal level as share of the increase demonstrated by benchmark intramuscular injection [1] | Tmax [2] [min] | AUC ([3]; 0.8 mg) [ng·h/mL] | Cmax ([3]; 0.8 mg) [ng/mL] | AUC ([3]; 8 mg) [ng·h/mL] | Cmax ([3]; 8 mg) [ng/mL] | Tmax ([3]; 8 mg) [min] | AUC ([3]; im, 0.4 mg) [ng·h/mL] | Cmax ([3]; im, 0.4 mg) [ng/mL] | Tmax ([3]; im, 0.4 mg) [min]
1 | CNC[C@H](O)c1ccc(O)c(O)c1 [epinephrine] | approximately 20% |  |  |  |  |  |  |  |  | 
2 | C=CCN1CC[C@]23c4c5ccc(O)c4O[C@H]2C(=O)CC[C@@]3(O)[C@H]1C5 [naloxone] |  | 15 | 8.33 | 25 | 58.3 | 52 | 18 | 10 | 9 | 22
